Results published in ChEMBL document CHEMBL5550171, “Poly (ADP-ribose) polymerase (PARP) inhibitors as anticancer agents: An outlook on clinical progress, synthetic strategies, biological activity, and structure-activity relationship” (Eur J Med Chem, 2024).

Experiments:
[1] = target: T1, Protein cereblon/Poly [ADP-ribose] polymerase 1 (Homo sapiens, UniProt P09874+Q96SW2); assay: PROTAC activity at CRBN/PARP1 in human MDA-MB-231 cells assessed as induction of PARP1 degradation at 0.1 uM relative to control; assay type: cell-based
Target sequence in this assay (P09874 2-1014 limits assumed): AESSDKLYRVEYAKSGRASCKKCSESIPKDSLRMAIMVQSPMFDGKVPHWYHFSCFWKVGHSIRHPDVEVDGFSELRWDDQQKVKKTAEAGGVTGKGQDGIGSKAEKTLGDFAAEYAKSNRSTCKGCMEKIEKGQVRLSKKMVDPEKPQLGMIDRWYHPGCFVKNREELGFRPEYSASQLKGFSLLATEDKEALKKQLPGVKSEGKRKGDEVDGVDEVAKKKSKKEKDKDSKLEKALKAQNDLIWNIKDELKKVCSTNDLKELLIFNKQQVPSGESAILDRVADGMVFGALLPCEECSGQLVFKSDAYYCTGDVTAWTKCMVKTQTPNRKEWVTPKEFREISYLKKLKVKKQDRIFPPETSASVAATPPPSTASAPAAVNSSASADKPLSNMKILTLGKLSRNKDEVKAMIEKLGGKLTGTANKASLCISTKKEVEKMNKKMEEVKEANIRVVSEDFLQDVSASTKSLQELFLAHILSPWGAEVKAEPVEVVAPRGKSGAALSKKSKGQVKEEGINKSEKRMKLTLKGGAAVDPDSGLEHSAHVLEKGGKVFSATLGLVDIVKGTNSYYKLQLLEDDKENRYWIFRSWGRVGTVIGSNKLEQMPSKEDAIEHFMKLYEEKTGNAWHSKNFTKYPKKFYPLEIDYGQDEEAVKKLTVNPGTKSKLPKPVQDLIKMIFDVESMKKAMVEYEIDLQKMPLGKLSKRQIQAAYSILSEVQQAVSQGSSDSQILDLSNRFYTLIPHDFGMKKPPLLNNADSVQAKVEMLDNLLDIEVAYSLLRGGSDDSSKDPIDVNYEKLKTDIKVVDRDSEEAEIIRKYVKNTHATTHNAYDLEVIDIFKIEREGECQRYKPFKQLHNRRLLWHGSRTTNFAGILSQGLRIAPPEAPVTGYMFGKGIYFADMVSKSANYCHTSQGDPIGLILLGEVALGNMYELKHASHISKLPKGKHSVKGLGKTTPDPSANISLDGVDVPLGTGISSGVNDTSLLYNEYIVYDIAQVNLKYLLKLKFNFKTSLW
Target sequence in this assay (Q96SW2 whole entry partner): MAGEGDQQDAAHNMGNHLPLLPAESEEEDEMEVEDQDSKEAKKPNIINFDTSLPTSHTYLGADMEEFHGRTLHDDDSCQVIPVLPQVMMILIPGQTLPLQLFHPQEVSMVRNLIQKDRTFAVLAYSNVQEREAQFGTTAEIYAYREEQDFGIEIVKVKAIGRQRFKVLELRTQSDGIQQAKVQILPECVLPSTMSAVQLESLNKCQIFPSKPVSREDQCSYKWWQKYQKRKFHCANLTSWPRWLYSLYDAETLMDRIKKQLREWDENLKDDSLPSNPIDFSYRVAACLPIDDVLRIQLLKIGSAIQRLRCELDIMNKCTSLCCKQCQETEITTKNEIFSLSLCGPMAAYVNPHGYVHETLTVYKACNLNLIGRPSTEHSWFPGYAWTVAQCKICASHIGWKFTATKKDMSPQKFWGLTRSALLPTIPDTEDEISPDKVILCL

MDA-MB-231 [2] = assay: Antiproliferative activity against human MDA-MB-231 cells assessed as reduction in cell viability at 10 uM after 24 hrs by CCK8 assay relative to control; assay type: functional
MDA-MB-231 [3] = assay: Antiproliferative activity against human MDA-MB-231 cells assessed as reduction in cell viability at 1 uM after 24 hrs by CCK8 assay relative to control; assay type: functional
[4] = target: T1, Protein cereblon/Poly [ADP-ribose] polymerase 1; assay: PROTAC activity at CRBN/PARP1 in human MDA-MB-231 cells assessed as […]; assay type: cell-based
Target sequence in this assay (P09874 whole entry): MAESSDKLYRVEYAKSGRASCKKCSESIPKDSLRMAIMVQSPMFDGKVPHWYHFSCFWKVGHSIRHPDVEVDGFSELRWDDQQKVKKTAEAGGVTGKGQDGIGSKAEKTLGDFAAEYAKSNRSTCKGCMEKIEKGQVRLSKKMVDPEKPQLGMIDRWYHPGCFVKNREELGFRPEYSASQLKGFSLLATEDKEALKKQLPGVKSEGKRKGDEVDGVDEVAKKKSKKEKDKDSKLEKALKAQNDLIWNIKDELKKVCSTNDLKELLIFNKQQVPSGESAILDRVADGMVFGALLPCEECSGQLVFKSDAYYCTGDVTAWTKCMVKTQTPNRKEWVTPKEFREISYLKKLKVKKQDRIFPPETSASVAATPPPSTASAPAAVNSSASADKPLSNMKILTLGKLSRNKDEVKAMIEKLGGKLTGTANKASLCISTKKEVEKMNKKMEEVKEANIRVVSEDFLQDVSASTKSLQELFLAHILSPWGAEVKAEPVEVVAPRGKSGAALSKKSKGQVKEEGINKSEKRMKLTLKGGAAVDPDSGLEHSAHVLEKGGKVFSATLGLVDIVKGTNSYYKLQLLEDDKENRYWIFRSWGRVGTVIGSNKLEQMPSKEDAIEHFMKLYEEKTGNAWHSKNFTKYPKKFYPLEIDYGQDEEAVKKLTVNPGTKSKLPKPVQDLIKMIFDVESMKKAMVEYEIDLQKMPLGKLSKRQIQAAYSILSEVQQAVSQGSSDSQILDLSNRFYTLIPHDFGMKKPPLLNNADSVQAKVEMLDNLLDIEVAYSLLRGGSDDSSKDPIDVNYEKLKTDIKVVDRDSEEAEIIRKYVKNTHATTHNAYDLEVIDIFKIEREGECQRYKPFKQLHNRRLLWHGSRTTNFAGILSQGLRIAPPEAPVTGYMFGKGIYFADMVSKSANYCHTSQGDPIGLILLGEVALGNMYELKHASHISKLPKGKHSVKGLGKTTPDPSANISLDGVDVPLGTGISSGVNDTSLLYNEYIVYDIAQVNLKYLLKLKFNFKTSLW
Target sequence in this assay (Q96SW2 whole entry): as the sequence (Q96SW2 whole entry partner) above

MDA-MB-231 [5] = assay: Antiproliferative activity against human MDA-MB-231 cells assessed as reduction in cell viability after 24 hrs by CCK8 assay; assay type: functional, cell-based; conditions: MDA-MB-231, 24 h
MDA-MB-231 [6] = assay: Antitumor activity against human MDA-MB-231 cells xenografted in mouse assessed as tumor growth inhibition at 40 mg/kg, po relative to control; assay type: functional; conditions: read-out: TGI
A549 [7] = assay: Antiproliferative activity against human A549 cells assessed as reduction in cell growth measured for 72 hrs by MTT assay; assay type: functional, cell-based; conditions: A549, 72 h
A549 [8] = assay: Induction of apoptosis in human A549 cells at 1 uM incubated for 48 hrs by Annexin V-FITC/PI staining based flow cytometry analysis relative to control; assay type: functional
A549 [9] = assay: Induction of apoptosis in human A549 cells at 2 uM incubated for 48 hrs by Annexin V-FITC/PI staining based flow cytometry analysis relative to control; assay type: functional
A549 [10] = assay: Induction of apoptosis in human A549 cells at 4 uM incubated for 48 hrs by Annexin V-FITC/PI staining based flow cytometry analysis relative to control; assay type: functional

Row | SMILES | Activity [1] [%] | Activity (MDA-MB-231 [2]) [%] | Activity (MDA-MB-231 [3]) [%] | DC50 [4] [nM] | IC50 (MDA-MB-231 [5]) [nM] | inhibition in vivo at 40 mg/kg (MDA-MB-231 [6]) [%] | IC50 (A549 [7]) [nM] | Activity (A549 [8]) [%] | Activity (A549 [9]) [%] | Activity (A549 [10]) [%]
1 | NC(=O)c1cccc2cn(-c3ccc(C4CCCN(CCC5CCN(CCC6CCN(c7ccc8c(c7)C(=O)N(C7CCC(=O)NC7=O)C8=O)CC6)CC5)C4)cc3)nc12 (stereo not given) | 88 | 11.78 | 65.84 | 25.2 | 1040 | 71.4 | – | – | – | –
2 | O=C1CCN(Cc2cn(-c3ccccc3F)nn2)C2(CCCCC2)c2ccccc21 | – | – | – | – | – | – | 1950 | 8 | 10.9 | 19
